The record followed here is patent US20260151376A1, “COMBINATION THERAPY FOR THE TREATMENT OF CANCER” (INSTITUT NATIONAL DE LA SANTÉ ET DE LA RECHERCHE MÉDICALE, priority 2022, published 2026).

For assay [1], the system named is IFNγ. Briefly: Intra-tumoral proteins analysis by western blot and ELISA: IFNγ. In kind it is in vivo, mice. On the procedure: FIG. 2: HA15 induces in vivo the expression of CHOP and IFNg in mice tumors: tumors were harvested from the mice after HA15 treatment and crushed into lysis buffer to get protein lysates. (A). Tumor lysates were analyzed by western blotting with CHOP, IFNγ and HSP90 antibodies. Densitometric analyses were then performed on the radiogram presented here thanks to the ImageJ (Fiji) program. The signal intensity of the target protein is weighted by that of the HSP90 control. (B) The intra-tumoral […] was dosed in the lysates by a Mouse IFN-g ELISA kit. Mann-Whitney test was performed to compare statistically the protein expressions in the two different groups.
Pieces of tumor were crushed thanks to the “Precellys 24 Tissue Homogenizer” into CK Mix Tubes (#P000918-LYSK0, Bertin Technologies) in presence of protein lysis buffer containing 50 mmol/l Tris-HCl (pH 7.5), 15 mmol/l, NaCl, 1% Triton X-100, and 1× protease and phosphatase inhibitors. Tumor lysates were then centrifuged to remove cells debris.
For western Blot, tumor lysates are prepared in Laemmli buffer. Briefly, tumor lysates (30 μg) were separated by SDS-PAGE, transferred onto a polyvinylidene fluoride membrane (Millipore), and then exposed to the appropriate antibodies. The antibody directed against IFN-gamma was purchased from Abcam (ab133566). Proteins were visualized with the ECL System from Amersham. […]
A general note: A western blot detects proteins with antibodies after separation by electrophoresis.

For assay [2], the system named is CT26 tumors. Kind of assay: CT26 allografts experiment, HA15 and anti-PD1 (Example 1). It is filed as in vivo. To be noted: single treatment; CT26 allograft in BALB/c mice; HA15 0.7 mg/mouse/day IP; anti-PD1 4 injections of 0.125 mg/mouse. On the procedure:
FIG. 1: CT26 cells (5.104) are injected subcutaneously in Balb/C mice. As soon as the tumors reach 50 mm^3, mice are randomly distributed into different experimental groups and treated daily (intraperitoneal) with Vehicle or HA15 (35 mg/kg) and twice a week during two weeks with anti-PD1 (6.25 mg/kg) or PBS. A: Individual tumor growth curves. B: Survival curves. Mice are euthanized when their tumor reach 800 mm^3. A log-rang (Mantel Cox) test was performed to compare statistically the survival in the different experimental groups. Ns=non-significant, *: p≤0.05, **: p≤0.01, ***: p≤0.001.
CT26 Allografts Experiment Female BALB/cOlaHsd mice were obtained at 5 weeks of age from Envigo Laboratory. One week later, these mice were inoculated subcutaneously with CT26 cells (5×10^5 cells/mouse). As soon as its tumor reach 50 mm^3, each mouse was allocated in the different experimental group following a randomization table created with the “Graphpad Quickcalcs” tool (7 mice/group). […] Tumor volumes were determined using the equation Volume=(Length×(Width)^2)/2. […]

The test system of assay [3] is CHOP. Kind of assay: Intra-tumoral proteins analysis by western blot: CHOP. It is filed as in vivo, mice.
Assay [4] concerns CT26 tumors. Kind of assay: CT26 tumor model, oral HA15 and anti-PDL1 (Example 2). In kind it is in vivo, mice. On the procedure: Mice: A total of 60 female BALB/C mice aged 5 weeks and weighted between 15-19 g, were ordered from Envigo. These had one week of acclimatation in C3M animal facility. Animals were housed in IVC cages (5 per cage) with individual mice identified by ear tag. All animals were allowed free access to a standard certified commercial diet and sanitised water during the study. The holding room was maintained under standard conditions: 18-24° C., 55-70% humidity and a 12h light/dark cycle. One week before dosing start, 2 animals died while blood sampling.
58 Mice were randomly assigned into the following treatment groups:
Cells: CT26 cell lines were thawed 2 weeks before mice arrival. These were cultured in RPMI medium supplemented with 10% FBS, 1% Penicillin/streptomycin and 2% sodium pyruvate. Cells were expanded 48 hrs prior to the subcutaneous injection in 5×T175 flasks at concentration of 0.8×10^6 cells. This concentration allows cells to be 70-80% confluency at the day of the injection. Briefly, cells were washed with PBS, detached from the flasks using 3 ml of trypsin, collected with RPMI medium and centrifuged at 300 g for 5 min. These were then resuspended in PBS, counted and 0.5×10^6 cells/mouse ([…] in total for 80 mice) were taken and re-centrifuged to be resuspended in 100 μl/mouse of PBS ready to be subcutaneously injected (8 ml in total for 80 mice). […]

Where [5] appears, read: liver, after HA15 treatment (data not shown).

In the case of `CC(=O)Nc1nc(-c2cccc(NS(=O)(=O)c3cccc4c(N(C)C)cccc34)c2)cs1` [HA15], the IFNγ expression result in assay [1] (CT26 tumors harvested after HA15 treatment, western blot and ELISA) is given as “induces”; in assay [1] (setting [5]), “no variation”. Moreover, the complete response in assay [2] came to 14%. Besides, the CHOP expression result in assay [3] (CT26 tumors harvested after HA15 treatment, western blot) was “induces”; in assay [3] (setting [5]), “no variation”. In addition, the tumor volume result in assay [4] (after 13 days of daily oral administration, statistically significant compared with vehicle group) was “decreased”. Also, the tumor weight entry in assay [4] (after mice termination at day 13, confirms the reduction in tumor growth) is “confirmed”.
